pIC50: −log10 of the molar value. Numbered stars: 1 amine (or outer) side, 2 acyl side, 3 side chain; on linkers, the order of the positions; unused ones are H or OH. Bridge positions count the residues as written; N and C are the ends. Square brackets hold non-standard residues; d marks the D form. Peptide text beside a SMILES is read from it. Trp(βS-Me,7-OMe) = COc1cccc2c([C@H](C)[C@H](N)C(=O)O)c[nH]c12; Ala(1-bicyclo(1.1.1)pentyl) = N[C@@H](CC12CC(C1)C2)C(=O)O; Phe(4-CH2COOH) = N[C@@H](Cc1ccc(CC(=O)O)cc1)C(=O)O; Trp(7-Br) = N[C@@H](Cc1c[nH]c2c(Br)cccc12)C(=O)O; Trp(7-CN) = N#Cc1cccc2c(C[C@H](N)C(=O)O)c[nH]c12; Trp(7-Cl) = N[C@@H](Cc1c[nH]c2c(Cl)cccc12)C(=O)O; X27 = O=C(O)c1ccc(C[C@H](N[*:1])C(=O)[*:2])cc1F; Phe(3-CONH2) = NC(=O)c1cccc(C[C@H](N)C(=O)O)c1; Phe(4-CONH2) = NC(=O)c1ccc(C[C@H](N)C(=O)O)cc1; Phe(4-COOH) = N[C@@H](Cc1ccc(C(=O)O)cc1)C(=O)O; Trp(7-aza) = N[C@@H](Cc1c[nH]c2ncccc12)C(=O)O; X2 = C[C@@H]1CC[C@@H](C(=O)[*:2])N([*:1])C1; Pip(5R-OH) = O=C(O)[C@@H]1CC[C@@H](O)CN1; X1 = O=C([C@@H]1CC[C@H](N[*:1])C1)[*:2]; d(cisHyp) = O=C(O)[C@H]1C[C@@H](O)CN1; Pip(4-aza) = O=C(O)[C@@H]1CNCCN1; 4Pal = N[C@@H](Cc1ccncc1)C(=O)O; NMeE = CN[C@@H](CCC(=O)O)C(=O)O; dHyp = O=C(O)[C@H]1C[C@H](O)CN1; Ahp(2) = CCCCC[C@H](N)C(=O)O; NEtAla = CCN[C@@H](C)C(=O)O; Pip = O=C(O)[C@@H]1CCCCN1; αMeS = C[C@](N)(CO)C(=O)O; Nle = CCCC[C@H](N)C(=O)O; Sar = CNCC(=O)O

In this experiment the target is T1, TNFα-induced NF-κB signal transduction pathway (TNFR1 signaling) in THP-1 cells (Homo sapiens, UniProt P19438).
T1 sequence (P19438 30-455): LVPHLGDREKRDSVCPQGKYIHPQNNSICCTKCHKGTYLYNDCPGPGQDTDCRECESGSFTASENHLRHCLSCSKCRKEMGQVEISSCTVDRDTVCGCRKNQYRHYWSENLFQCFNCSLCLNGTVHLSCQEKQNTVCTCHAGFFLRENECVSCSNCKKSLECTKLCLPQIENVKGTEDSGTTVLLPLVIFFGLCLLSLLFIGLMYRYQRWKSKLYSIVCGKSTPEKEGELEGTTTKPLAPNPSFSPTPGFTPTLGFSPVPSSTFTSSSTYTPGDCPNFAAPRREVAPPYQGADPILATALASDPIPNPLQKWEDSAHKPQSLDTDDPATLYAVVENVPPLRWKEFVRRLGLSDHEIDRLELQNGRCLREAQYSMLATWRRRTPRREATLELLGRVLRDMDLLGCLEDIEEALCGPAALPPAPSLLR
In words: THP-1 Lucia NF-κB reporter cell assay, inhibition of TNFα-induced NF-κB signaling. Conditions: THP-1 NF-κB Lucia reporter cells, 10 ng/mL TNFα, 16-18 h, secreted luciferase; read-out: THP-1 IC50. The experiment is classed as cell-based. The essentials: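 THP-1 Lucia NF-κB cells, 20k/well, no selection antibiotics; peptide pre-inc 1 h 37 °C; + recombinant human TNFα 10 ng/mL final; o.n.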
By pIC50 is commonly meant the IC50 on a negative log10 scale, so that one unit is a factor of ten. In the case of `CCCCC[C@@H]1NC(=O)[C@@H]2CC[C@@H](C2)NC(=O)[C@H]([C@@H](C)c2c[nH]c3c(OC)cccc23)NC(=O)CN(C)C(=O)[C@H](Cc2cccc(C(N)=O)c2)NC(=O)[C@H](Cc2ccc(C(N)=O)cc2)NC(=O)[C@](C)(CO)NC(=O)[C@H](Cc2c[nH]c3c(Br)cccc23)NC(=O)[C@H](Cc2ccc(C(=O)O)cc2)NC(=O)[C@H](CC(N)=O)NC(=O)[C@H]2C[C@H](O)CN2C(=O)[C@H](Cc2c[nH]c3ccccc23)NC(=O)[C@@H]2CNCCN2C(=O)[C@H](Cc2ccncc2)NC1=O` [SEQ ID NO. 109] (cyclo([4Pal][Pip(4-aza)]W[dHyp]N[Phe(4-COOH)][Trp(7-Br)][αMeS][Phe(4-CONH2)][Phe(3-CONH2)][Sar][Trp(βS-Me,7-OMe)][X1][Ahp(2)])), the negative logarithm of the IC50 (pIC50) was 9.10.
To `CCCC[C@@H]1NC(=O)CSC[C@@H](C(N)=O)NC(=O)[C@H]([C@@H](C)c2c[nH]c3c(OC)cccc23)NC(=O)CN(C)C(=O)[C@H](Cc2ccc(O)cc2)NC(=O)[C@H](Cc2ccc(C(=O)O)cc2)NC(=O)[C@](C)(CO)NC(=O)[C@H](Cc2c[nH]c3c(Cl)cccc23)NC(=O)[C@H](Cc2ccncc2)NC(=O)[C@H](CC(N)=O)NC(=O)[C@H]2C[C@@H](O)CN2C(=O)[C@H](Cc2c[nH]c3ncccc23)NC(=O)[C@@H]2CNCCN2C(=O)[C@H](Cc2ccncc2)NC1=O` [SEQ ID NO. 261] ({CH2CO}-[Nle][4Pal][Pip(4-aza)][Trp(7-aza)][d(cisHyp)]N[4Pal][Trp(7-Cl)][αMeS][Phe(4-COOH)]Y[Sar][Trp(βS-Me,7-OMe)]C-NH2; thioether N-14) belongs 8.57; to `CCCC[C@@H]1NC(=O)CSC[C@@H](C(N)=O)NC(=O)[C@H]([C@@H](C)c2c[nH]c3c(OC)cccc23)NC(=O)CN(C)C(=O)[C@H](Cc2ccc(O)cc2)NC(=O)[C@H](Cc2ccc(C(=O)O)cc2)NC(=O)[C@](C)(CO)NC(=O)[C@H](Cc2c[nH]c3c(Cl)cccc23)NC(=O)[C@H](Cc2ccc(CC(=O)O)cc2)NC(=O)[C@H](CC(N)=O)NC(=O)[C@H](CCC(=O)O)N(C)C(=O)[C@H](Cc2c[nH]c3ccccc23)NC(=O)[C@@H]2CCCCN2C(=O)[C@H](Cc2ccncc2)NC1=O` [SEQ ID NO. 212] ({CH2CO}-[Nle][4Pal][Pip]W[NMeE]N[Phe(4-CH2COOH)][Trp(7-Cl)][αMeS][Phe(4-COOH)]Y[Sar][Trp(βS-Me,7-OMe)]C-NH2; thioether N-14), 8.55; to `CCN1C(=O)[C@H](Cc2c[nH]c3c(Cl)cccc23)NC(=O)[C@H](CO)NC(=O)[C@H](Cc2ccncc2)NC(=O)[C@H](CC23CC(C2)C3)NC(=O)CSC[C@@H](C(N)=O)NC(=O)[C@H](Cc2c[nH]c3ncccc23)NC(=O)CN(C)C(=O)[C@H](Cc2ccc(O)cc2)NC(=O)[C@H](Cc2ccc(C(=O)O)cc2)NC(=O)[C@](C)(CO)NC(=O)[C@H](Cc2c[nH]c3ncccc23)NC(=O)[C@H](Cc2ccc(C(=O)O)cc2)NC(=O)[C@H](CC(N)=O)NC(=O)[C@@H]1C` [SEQ ID NO. 232] ({CH2CO}-[Ala(1-bicyclo(1.1.1)pentyl)][4Pal]S[Trp(7-Cl)][NEtAla]N[Phe(4-COOH)][Trp(7-aza)][αMeS][Phe(4-COOH)]Y[Sar][Trp(7-aza)]C-NH2; thioether N-14), 8.20.
Consider `CCCC[C@@H]1NC(=O)[C@@H]2CC[C@@H](C2)NC(=O)[C@H]([C@@H](C)c2c[nH]c3c(OC)cccc23)NC(=O)CN(C)C(=O)[C@H](Cc2ccc(C(=O)O)cc2)NC(=O)[C@H](Cc2ccc(C(N)=O)cc2)NC(=O)[C@](C)(CO)NC(=O)[C@H](Cc2c[nH]c3c(C#N)cccc23)NC(=O)[C@H](Cc2ccc(C(=O)O)c(F)c2)NC(=O)[C@H](CC(N)=O)NC(=O)[C@H]2C[C@H](O)CN2C(=O)[C@H](Cc2c[nH]c3ncccc23)NC(=O)[C@@H]2CC[C@@H](O)CN2C(=O)[C@H](Cc2ccncc2)NC1=O` [SEQ ID NO. 8] (cyclo([4Pal][Pip(5R-OH)][Trp(7-aza)][dHyp]N[X27][Trp(7-CN)][αMeS][Phe(4-CONH2)][Phe(4-COOH)][Sar][Trp(βS-Me,7-OMe)][X1][Nle])), for which the negative-log IC50 (pIC50) is 9.15.
To `CCCC[C@@H]1NC(=O)CSC[C@@H](C(N)=O)NC(=O)[C@H]([C@@H](C)c2c[nH]c3c(OC)cccc23)NC(=O)CN(C)C(=O)[C@H](Cc2ccc(O)cc2)NC(=O)[C@H](Cc2ccc(C(=O)O)cc2)NC(=O)[C@](C)(CO)NC(=O)[C@H](Cc2c[nH]c3c(Cl)cccc23)NC(=O)[C@H](Cc2ccncc2)NC(=O)[C@H](CC(N)=O)NC(=O)[C@H](CCC(=O)O)N(C)C(=O)[C@H](Cc2c[nH]c3ccccc23)NC(=O)[C@@H]2CC[C@@H](C)CN2C(=O)[C@H](Cc2ccncc2)NC1=O` [SEQ ID NO. 272] ({CH2CO}-[Nle][4Pal][X2]W[NMeE]N[4Pal][Trp(7-Cl)][αMeS][Phe(4-COOH)]Y[Sar][Trp(βS-Me,7-OMe)]C-NH2; thioether N-14) belongs 8.59.

For the origin of these results see patent US20240287138A1, “CYCLIC PEPTIDES FOR INHIBITING TNF RECEPTOR 1 ACTIVITY” (Merck Sharp & Dohme LLC, priority 2023, published 2024).
